Residues, ends and D or L forms follow the SMILES beside them. *: point of attachment. Cbz = O=C(OCc1ccccc1)*; CH2F = FC*
Experiments:
Aβ1-40 = test: Extracellular Aβ1-40 in conditioned medium of APP-CHO cells (ELISA); type: cell-based, Chinese Hamster; details: 6 hr; for effect on Aβ1-40 levels at lower dose: 1 μM
Description: […] treatment regimes were used namely a control, 1 μM, 5 μM, 10 μM, 25 μM and 50 μM (FIG. 3). APP-transfected CHO cells were treated with each of the doses of [Cu(GTSM)] for 6 hr in serum-free medium and conditioned medium was then collected and assayed for Aβ1-40 peptide by routine […].
Five treatment regimes were used namely a control, 1 ? M, 5 ? M, 10 ? M, 25 ? M and 50 ? M (FIG. 4). APP-transfected CHO cells were treated with each of the doses of [Zn(BTSC)] for 6 hr in serum-free medium and conditioned medium was then collected and assayed for Aβ1-40 peptide by routine Aβ ELISA.
Generation of APP-transfected Chinese Hamster Ovary (CHO) APP-CHO cells were generated by expressing the 695-amino acid APP cDNA in the pIRESpuro2 expression vector (Clontech, Mountain View, Calif., USA). Cells were transfected using Lipofectamine 2000 and cultured in RPMI-1640 media supplemented with 1 mM glutamine and 10% fetal bovine serum (all from Invitrogen, Mount Waverley, Victoria, Australia). Transfected cells were selected and maintained using 7.5 μg/ml puromycin (Sigma-Aldrich).
Treatment of cells with Complexes. APP-CHO cells were passaged at a ratio of 1:5 and grown in 6 well plates for 3 days before experiments. Compounds were prepared as a 10 mM stock solution in DMSO and added to serum-free RPMI medium supplemented with puromycin. Medium was briefly mixed by aspiration prior to addition to cells. Control cultures were treated with vehicle (DMSO) alone. Cultures were incubated for 6 hr and conditioned media taken for measurement of […] levels by ELISA.
Double antibody capture enzyme-linked immunosorbent assay (ELISA) for Aβ detection. Aβ levels were determined in culture medium using the 384 well Aβ1-40 ELISA protocol. 384 well plates were coated with monoclonal antibody (mAb) G2-10 in carbonate-bicarbonate coating buffer (pH 9.6) for Aβ1-40 detection. The plates were left to incubate overnight at 4° C. with rocking. The plates were then washed three times with PBST at RT with rocking and the solution discarded after each wash. Then 100 μL of 0.5% (w/v) hydrolyzed casein in PBS (pH 7.4) was added to each well and left to incubate for 2 hr at 37° C. to prevent non-specific binding. The plates were then washed three times with PBST at RT with rocking. 20 ng of biotinylated mAb WO2 (epitope at Aβ5-8) was added to each well of the plates (10 μL/well at […]). 50 μL/well of Aβ1-40 standard peptide samples (MHRI, Melbourne, Australia), cell culture medium samples and the blanks were added. The plates were left to incubate overnight at 4° C. with rocking. The plates were washed nine times with PBST at RT with rocking. 25 μL streptavidin-labelled europium was added at a dilution of 1:1000. Plates were then washed ten times with PBST where the 9th and 10th wash was left on for 5 min before discarding. To develop the plates 80 μL of enhancement solution was added to each well and plates were read in a WALLAC Victor^2 plate reader with excitation (Ex) at 340 nm and emission (Em) at 613 nm. Aβ1-40 peptide standards and samples were assayed in triplicate. The values obtained from the triplicate wells were used to calculate the […] concentration (expressed as ng/mL) based on the standard curve generated on each plate and are given in Table 3.
APP-CHO cells were treated with 10 μM [Zn(ATSE)] with or without specific inhibitors of PI3K (LY294002), JNK (SP600125) or p38 (SB203580) (25 μM of each) for 6 hr and conditioned medium analyzed for levels of Aβ1-40 by routine ELISA.

G93A-SOD1 mice = details: other reported pharmacological treatments (literature); cited from earlier work
EGFR = EGFR phosphorylation (tyr1068) in U87MG-EGFR cells (Western blot); type: cell-based; details: added to CuGTSM-treated cells (25 μM CuGTSM)
Description: Transfected U87MG-EGFR cells were treated with 25 μM CuGTSM or DMSO as vehicle control for 5 hr and EGFR phosphorylation (tyr1068) determined by Western blot. Antisera to EGFRtyr1068 was routinely used as this is one of the critical tyrosine residues involved in EGFR activation and downstream signaling. It is also routinely reported in the literature on EGFR activation.

ERK, GSK3 and JNK = test: Downstream phosphorylation of ERK, GSK3 and JNK in U87MG-EGFR cells (Western blot); type: cell-based; details: 25 μM CuGTSM plus 10 μM PD153035; not completely ablated
Description: A study was carried out to determine if kinase pathways modulated by CuGTSM were mediated by activation of EGFR. This was done by treating U87MG-EGFR cells with 25 μM DMSO, CuGTSM, CuGTSM plus 10 μM PD153035 (EGFR inhibitor), or 10 μM PD153035 alone. The activation of ERK, GSK3 and JNK was then determined by Western blot.

JNK = test: Western blot for JNK activation (p-JNK) in APP-CHO cells; type: cell-based, Chinese Hamster; details: 10 μM, 6 hr
Description: (§1) APP-CHO cells were treated with 10 μM metal-BTSC complexes for 6 hr and cell lysates examined for activation of PI3K and MAPK signal pathways.
(§2) APP-CHO cells were treated with 10 μM metal-BTSC complexes for 6 hr. Cells were extracted into Phosphosafe (Novagen) lysis buffer and proteins separated by gel-electrophoresis on 12% tris-glycine gels. Proteins were transferred to PVDF membranes and blocked with milk powder for 1 hr. Blots were then probed for total and phosphorylated forms of Akt, JNK and GSK3 using antibodies from Cell Signaling Technologies. After detection with secondary antisera (HRP-labelled), blots were analyzed for signals using chemiluminescence analysis on a GeneGnome image scanner. Activation of PI3K is shown by increased levels of phosphorylated Akt (p-Akt). Activated JNk is shown by increased p-JNK. Increased levels of deactivated GSK3 is shown by increased p-GSK3.

[1] = system: PI3K (Akt phosphorylation); test: Western blot for PI3K activation (Akt phosphorylation) in APP-CHO cells; type: cell-based, Chinese Hamster; details: 10 μM, 6 hr
Description: as §1, §2

[2] = system: APP-transfected CHO cells; test: Cellular zinc uptake of Zn-BTSC complexes (ICP-MS), with or without Cu2+; type: cell-based, Chinese Hamster; details: 6 hr
Description: It was known that copper can transmetallate [Zn(BTSC)] complexes. Therefore, if [Zn(BTSC)] complexes were administered to the culture medium in the presence of exogenous Cu^2+, we would expect [Cu(BTSC)] complexes to form. To examine this, cells were exposed to 10 μM [Zn(ATSE)] or [Zn(ATSP)] with or without 5-50 μM Cu^2+ for 6 hr.
Supernatant was discarded and cell pellets frozen at −70° C. until metal levels were determined by inductively-coupled plasma mass spectrometry (ICP-MS) at the Department of Pathology, University of Melbourne. […] [Zn(ATSM)] and [Zn(ATSE)] induced 8.2±0.25 and 9.8±0.9-fold increases in cellular Zn levels respectively when compared to untreated controls (FIG. 2).
To examine this, cells were exposed to 10 μM [Zn(ATSE)] or [Zn(ATSP)] with or without 5-50 μM Cu^2+ for 6 hr. Co-treatment of cells with Cu and the Zn-BTSC complexes reduced the level of Zn uptake compared to Zn-BTSC alone (FIG. 5).

GSK3 = test: Western blot for GSK3 phosphorylation and expression in APP-CHO cells; type: cell-based, Chinese Hamster; details: 10 μM, 6 hr
Description: as §1, §2

Compound: C[S+]([O-])c1ccc(-c2nc(-c3ccncc3)c(-c3ccc(F)cc3)[nH]2)cc1 (stereo not shown) [SB203580, reference compound]
- effect of kinase inhibitor on the loss of Aβ by [Zn(ATSE)] (Aβ1-40; 25 μM inhibitor with 10 μM [Zn(ATSE)]): no effect

Compound: CCN1C=CN(CC)C1=C1C2=NC(=C(c3n(CC)cc[n+]3CC)C3=NC(=C(c4n(CC)cc[n+]4CC)c4ccc([n-]4)C(c4n(CC)cc[n+]4CC)=C4C=CC1=N4)C=C3)C=C2.[Cl-].[Cl-].[Cl-].[Cl-].[Cl-].[Mn+3] [AEOL 10150]
- Increased Life Span (G93A-SOD1 mice): 20 days

Compound: CO/N=C(\C(=O)N[C@@H]1C(=O)N2C(C(=O)O)=C(CSc3nc(=O)c(=O)[nH]n3C)CS[C@H]12)c1csc(N)n1 [Ceftriaxone]
- Increased Life Span (G93A-SOD1 mice): 10 days

Compound: CNC(=S)NN=CC=NNC(=S)NC [GTSMH2]
- effect on extracellular Aβ1-40 levels (Aβ1-40; 1-50 μM, serum-free medium): very small reduction

Compound: COc1cc2ncnc(Nc3cccc(Br)c3)c2cc1OC [PD153035]
- effect on CuGTSM-induced activation of EGFR (EGFR): inhibited activation
- CuGTSM-induced phosphorylation of JNK, GSK3 and ERK (ERK, GSK3 and JNK): decrease

Compound: COC(=O)C[C@H](NC(=O)[C@H](C)NC(=O)[C@@H](NC(=O)OCc1ccccc1)C(C)C)C(=O)CF [zVAD-fink] (Cbz-Val-Ala-Asp(OMe)-CH2F)
- Increased Life Span (G93A-SOD1 mice): 27 days

Compound: CN(CC(=O)O)C(=N)N [Creatine]
- Increased Life Span (G93A-SOD1 mice): 20 days

Compound: CCNC1=NN=C(C)C(C)=NN=C(NCC)[S][Zn][S]1 [[Zn(ATSE)]]
- activation of JNK (JNK): induced activated
- effect on Aβ1-40 levels at lower dose (Aβ1-40): greater reductions
- effect on Aβ1-40 levels at lower dose (Aβ1-40; listed as Zn-ATSE): inhibited
- activation of PI3K (Akt phosphorylation) [1]: induced activated
- fold increase in cellular zinc levels ([2]; 10 μM complex alone): 9.7±0.7 fold
- fold increase in intracellular zinc ([2]; 10 μM complex in the presence of 10 μM Cu2+): 2.9±0.3 fold
- fold increases in cellular Zinc levels ([2]; APP-CHO cells, 1-50 μM, vs untreated controls): 9.8±0.9 fold
- GSK3 expression (GSK3): increased
- phosphorylation (de-activation) of GSK3 (GSK3): induced down-stream phosphorylation

Compound: CCNC1=N[N+]2=C(C)C(C)=[N+]3N=C(NCC)[S][Cu-2]23[S]1 [CuATSE]
- activation of JNK (JNK): did not induce activation
- activation of PI3K (Akt phosphorylation) [1]: did not induce activation

Compound: CC(=N\NC([S-])=Nc1ccccc1)/C(C)=N/NC([S-])=Nc1ccccc1.[Cu+2] [CuATSP]
- activation of JNK (JNK): did not induce activation
- activation of PI3K (Akt phosphorylation) [1]: did not induce activation

Compound: CC1=[N+]2N=C(Nc3ccccc3)[S][Zn]23[S]C(Nc2ccccc2)=N[N+]3=C1C [[Zn(ATSP)]]
- activation of JNK (JNK): did not induce activation
- activation of PI3K (Akt phosphorylation) [1]: did not induce activation
- GSK3 expression (GSK3): small increase

Compound: Vitamin E
- Increased Life Span (G93A-SOD1 mice): No effect

Compound: Nc1nc2ccc(OC(F)(F)F)cc2s1 [Riluzole]
- Increased Life Span (G93A-SOD1 mice): 10 to 15 days

Compound: CCNC1=NN=C2CCCCC2=NN=C(NCC)[S][Zn][S]1 [[Zn(ChexTSE)]]
- effect on Aβ1-40 levels at lower dose (Aβ1-40): greater reductions
- effect on Aβ1-40 levels at lower dose (Aβ1-40; listed as Zn-Chex TSE): inhibited

Reference: patent US11123350B2, “Metal delivery agents and therapeutic uses of the same” (THE UNIVERSITY OF MELBOURNE, priority 2006, dated 2021)
